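Five compound concentrations were applied to cells in 96-well plates for 48 hours; endpoints were derived by simple linear interpolation of the resulting dose-response curve. GI50: concentration for 50% inhibition of growth.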 Calls of active or inactive are those of the source. Cut-off read from the data, not from the text of the source: active = GI50 up to about 1.1 µM and inactive = higher.
Experiments:
Assay in all cases: growth of human tumour cells (NCI), 48 h
SK-MEL-28 = test system: SK-MEL-28
MOLT-4 = test system: MOLT-4
M14 = test system: M14
HT-29 = test system: HT-29
SNB-75 = test system: SNB-75
OVCAR-5 = test system: OVCAR-5
NCI-H23 = test system: NCI-H23
KM12 = test system: KM12
ACHN = test system: ACHN
HL-60 = test system: HL-60
HCT-15 = test system: HCT-15
HCT-116 = test system: HCT-116
UACC-257 = test system: UACC-257
LOX IMVI = test system: LOX IMVI
DMS-114 = test system: DMS-114
M19-MEL = test system: M19-MEL
HOP-18 = test system: HOP-18
A498 = test system: A498
SK-MEL-2 = test system: SK-MEL-2
U-251 = test system: U-251
RPMI-8226 = test system: RPMI-8226
SW-620 = test system: SW-620
NCI-H522 = test system: NCI-H522
SK-MEL-5 = test system: SK-MEL-5
IGROV-1 = test system: IGROV-1
K562 = test system: K562
TK-10 = test system: TK-10
LXFL 529 = test system: LXFL 529
DLD-1 = test system: DLD-1
CCRF-CEM = test system: CCRF-CEM
CAKI-1 = test system: CAKI-1
NCI-H226 = test system: NCI-H226
DMS-273 = test system: DMS-273
OVCAR-8 = test system: OVCAR-8
HCC 2998 = test system: HCC 2998
Malme-3M = test system: Malme-3M
OVCAR-3 = test system: OVCAR-3
UO-31 = test system: UO-31
COLO 205 = test system: COLO 205
A549 = test system: A549
UACC-62 = test system: UACC-62
OVCAR-4 = test system: OVCAR-4
HOP-62 = test system: HOP-62
NCI-H460 = test system: NCI-H460
SF-268 = test system: SF-268
SK-OV-3 = test system: SK-OV-3
786-0 = test system: 786-0
EKVX = test system: EKVX
SF-295 = test system: SF-295
SNB-19 = test system: SNB-19
SN12C = test system: SN12C
KM-20L2 = test system: KM-20L2

Measured: GI50

CSC1=NC=CCN1C
> 100 µM: HCT-15
inactive: SK-MEL-28 > 100 µM | MOLT-4 > 100 µM | M14 > 100 µM | HT-29 > 100 µM | SNB-75 > 100 µM | OVCAR-5 > 100 µM | NCI-H23 > 100 µM | KM12 > 100 µM | ACHN > 100 µM | HL-60 > 100 µM | HCT-116 > 100 µM | UACC-257 > 100 µM | LOX IMVI > 100 µM | DMS-114 > 100 µM | M19-MEL > 100 µM | HOP-18 > 100 µM | A498 > 100 µM | SK-MEL-2 > 100 µM | U-251 > 100 µM | RPMI-8226 > 100 µM | SW-620 > 100 µM | NCI-H522 > 100 µM | SK-MEL-5 > 100 µM | IGROV-1 > 100 µM | K562 > 100 µM | TK-10 > 100 µM | LXFL 529 > 100 µM | DLD-1 > 100 µM | CCRF-CEM > 100 µM | CAKI-1 > 100 µM | NCI-H226 > 100 µM | DMS-273 > 100 µM | OVCAR-8 > 100 µM | HCC 2998 > 100 µM | Malme-3M > 100 µM | OVCAR-3 > 100 µM | UO-31 > 100 µM | COLO 205 > 100 µM | A549 > 100 µM | UACC-62 > 100 µM | OVCAR-4 > 100 µM | HOP-62 > 100 µM | NCI-H460 > 100 µM | SF-268 > 100 µM | SK-OV-3 > 100 µM | 786-0 > 100 µM | EKVX > 100 µM | SF-295 > 100 µM | SNB-19 > 100 µM | SN12C > 100 µM | KM-20L2 > 100 µM
